Where “and” joins values, the source holds several entries; their conditions need not be identical. Equal entries are not always repeated. Inconclusive results and toxic doses are left out. No stated cut-off is given here; in the data, active means T/C of 150% or more; inactive means T/C below 125%.
Test system: L1210 leukemia ip in BDF1 mice, survival T/C
Assay: NCI In Vivo Anticancer Drug Screen. Data for tumor model L1210 Leukemia (intraperitoneal) in B6D2F1 (BDF1) mice
Settings: endpoint: mean survival time, higher = longer survival
Method in brief: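 Tumor cells were implanted, animals were treated, and survival was followed. The result divides the treated measurement by the vehicle-control measurement.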

[1] = dose: 50.0 mg/kg/injection, schedule: Q01DX009 (ip), vehicle: saline with Tween-80
[2] = dose: 100.0 mg/kg/injection, schedule: Q04DX003 (ip), vehicle: Klucel (hydroxypropylcellulose) (HPC)
[3] = dose: 200.0 mg/kg/injection, schedule: Q04DX003 (ip), vehicle: Klucel (hydroxypropylcellulose) (HPC)
[4] = dose: 400.0 mg/kg/injection, schedule: Q04DX003 (ip), vehicle: Klucel (hydroxypropylcellulose) (HPC)
[5] = dose: 100.0 mg/kg/injection, schedule: Q01DX001 (ip), vehicle: saline
[6] = dose: 200.0 mg/kg/injection, schedule: Q01DX001 (ip), vehicle: saline
[7] = dose: 400.0 mg/kg/injection, schedule: Q01DX001 (ip), vehicle: saline
[8] = dose: 100.0 mg/kg/injection, schedule: Q01DX009 (ip), vehicle: Klucel (hydroxypropylcellulose) (HPC)
[9] = dose: 200.0 mg/kg/injection, schedule: Q01DX009 (ip), vehicle: Klucel (hydroxypropylcellulose) (HPC)
[10] = dose: 400.0 mg/kg/injection, schedule: Q01DX009 (ip), vehicle: Klucel (hydroxypropylcellulose) (HPC)
[11] = dose: 50.0 mg/kg/injection, schedule: Q01DX001 (ip), vehicle: saline

Measured: T/C

COc1cc(/C=N/NC(=O)c2ccccc2Cl)ccc1O
inactive: dose: 12.5 mg/kg/injection, schedule: Q01DX009 (ip), vehicle: saline with Tween-80 91 % of control | dose: 25.0 mg/kg/injection, schedule: Q01DX009 (ip), vehicle: saline with Tween-80 88 % of control | [1] 95 % of control and 97 % of control

Nc1nc(N)nc(-c2ccccc2N=NN2CCCCC2)n1
inactive: [2] 101 % of control | [3] 94 % of control | [4] 95 % of control

Nc1nc(N)c(-c2ccc(Cl)cc2)c(CO)n1
inactive: [5] 93 % of control | [6] 104 % of control | [7] 95 % of control

CC(=O)CC(C)(C)c1ccccc1
inactive: dose: 100.0 mg/kg/injection, schedule: Q01DX001 (ip), vehicle: Klucel (hydroxypropylcellulose) (HPC) 100 % of control | dose: 100.0 mg/kg/injection, schedule: Q01DX009 (ip), vehicle: saline 103 % of control | dose: 100.0 mg/kg/injection, schedule: Q04DX003 (ip), vehicle: saline 103 % of control | dose: 200.0 mg/kg/injection, schedule: Q01DX001 (ip), vehicle: Klucel (hydroxypropylcellulose) (HPC) 95 % of control | dose: 200.0 mg/kg/injection, schedule: Q01DX009 (ip), vehicle: saline 101 % of control | dose: 200.0 mg/kg/injection, schedule: Q04DX003 (ip), vehicle: saline 100 % of control | dose: 400.0 mg/kg/injection, schedule: Q01DX001 (ip), vehicle: Klucel (hydroxypropylcellulose) (HPC) 94 % of control | dose: 400.0 mg/kg/injection, schedule: Q04DX003 (ip), vehicle: saline 111 % of control

C#CC(O)(c1ccccc1)c1cc(OC)c(OC)cc1OC (stereo unspecified)
inactive: dose: 100.0 mg/kg/injection, schedule: Q04DX003 (ip), vehicle: saline with Tween-80 101 % of control | dose: 200.0 mg/kg/injection, schedule: Q04DX003 (ip), vehicle: saline with Tween-80 97 % of control | dose: 400.0 mg/kg/injection, schedule: Q04DX003 (ip), vehicle: saline with Tween-80 94 % of control

FC(F)/C=C\c1ccccc1
inactive: dose: 75.0 mg/kg/injection, schedule: Q01DX001 (ip), vehicle: other 103 % of control | dose: 150.0 mg/kg/injection, schedule: Q01DX001 (ip), vehicle: other 105 % of control | dose: 300.0 mg/kg/injection, schedule: Q01DX001 (ip), vehicle: other 111 % of control

Cc1nc2sc3c(c2c(=S)[nH]1)CCCC3
inactive: dose: 100.0 mg/kg/injection, schedule: Q01DX001 (ip), vehicle: saline sonified 86 % of control | dose: 200.0 mg/kg/injection, schedule: Q01DX001 (ip), vehicle: saline sonified 89 % of control | dose: 400.0 mg/kg/injection, schedule: Q01DX001 (ip), vehicle: saline sonified 91 % of control

COc1ccc(C(=O)c2ccc(Cl)s2)cc1
inactive: dose: 100.0 mg/kg/injection, schedule: Q04DX003 (ip), vehicle: gum acacia 96 % of control | dose: 200.0 mg/kg/injection, schedule: Q04DX003 (ip), vehicle: gum acacia 91 % of control | dose: 400.0 mg/kg/injection, schedule: Q04DX003 (ip), vehicle: gum acacia 89 % of control

COC1=C(OC)C(=O)C(SCCCc2ccccc2)=CC1=O
inactive: dose: 1.56 mg/kg/injection, schedule: Q01DX009 (im), vehicle: olive oil, sesame oil, peanut oil 101 % of control | dose: 3.13 mg/kg/injection, schedule: Q01DX009 (im), vehicle: olive oil, sesame oil, peanut oil 96 % of control | dose: 6.25 mg/kg/injection, schedule: Q01DX009 (im), vehicle: olive oil, sesame oil, peanut oil 98 % of control | dose: 12.5 mg/kg/injection, schedule: Q01DX009 (im), vehicle: olive oil, sesame oil, peanut oil 101 % of control | dose: 25.0 mg/kg/injection, schedule: Q01DX009 (im), vehicle: olive oil, sesame oil, peanut oil 98 % of control

CC(=O)Nc1cccc([N+](=O)[O-])c1
inactive: [1] 100 % of control | [5] 108 % of control | dose: 100.0 mg/kg/injection, schedule: Q01DX009 (ip), vehicle: saline with Tween-80 90 % of control | [6] 102 % of control | dose: 200.0 mg/kg/injection, schedule: Q01DX009 (ip), vehicle: saline with Tween-80 103 % of control | [7] 108 % of control

CCOC(=O)C(CCCO)C(=O)OCC
inactive: dose: 100.0 mg/kg/injection, schedule: Q01DX001 (ip), vehicle: saline with Tween-80 98 % of control | dose: 200.0 mg/kg/injection, schedule: Q01DX001 (ip), vehicle: saline with Tween-80 96 % of control | dose: 400.0 mg/kg/injection, schedule: Q01DX001 (ip), vehicle: saline with Tween-80 91 % of control

CN(C)C(=S)N(C(=S)N(C)C)c1ccccc1
inactive: [5] 95 % of control | [6] 103 % of control | [7] 108 % of control

NC(=O)c1ccccc1C(N)=O
inactive: [8] 97 % of control | [2] 100 % of control | [9] 98 % of control | [3] 102 % of control | [10] 93 % of control | [4] 100 % of control

COc1ccccc1CN1CCCN(Cc2ccccc2OC)C1c1ccc(N(C)C)cc1
inactive: [11] 98 % of control | [5] 98 % of control | [6] 95 % of control | [7] 88 % of control

CC(C)CC(NC(=O)OCc1ccccc1)C(=O)NCCCCCCNCCCCCCNC(=O)C(CC(C)C)NC(=O)OCc1ccccc1 (stereo unspecified)
inactive: [11] 95 % of control | [6] 98 % of control

CC(C)(C)c1cc(/C=N/NC(=O)COCC(=O)N/N=C/c2cc(C(C)(C)C)c(O)c(C(C)(C)C)c2)cc(C(C)(C)C)c1O
inactive: [8] 95 % of control | [9] 103 % of control | [10] 92 % of control

Cc1ccc(N2C=Nc3ccc(C)cc3C2)cc1
inactive: [8] 92 % of control | dose: 100.0 mg/kg/injection, schedule: Q04DX003 (ip), vehicle: other 107 % of control | [9] 104 % of control | dose: 200.0 mg/kg/injection, schedule: Q04DX003 (ip), vehicle: other 90 % of control

NC(=O)C1(Nc2ccc(-c3ccc(I)cc3)cc2)CCCC1
inactive: dose: 50.0 mg/kg/injection, schedule: Q01DX001 (ip), vehicle: carboxymethylcellulose (CMC) 86 % of control | dose: 100.0 mg/kg/injection, schedule: Q01DX001 (ip), vehicle: carboxymethylcellulose (CMC) 86 % of control | dose: 200.0 mg/kg/injection, schedule: Q01DX001 (ip), vehicle: carboxymethylcellulose (CMC) 86 % of control | dose: 400.0 mg/kg/injection, schedule: Q01DX001 (ip), vehicle: carboxymethylcellulose (CMC) 90 % of control

CCCCCO/N=C\c1c2c(O)c3c(O)c(C)c4c(c3c1O)C(=O)C(C)(O/C=C\C(OC)C(C)C(OC(C)=O)C(C)C(O)C(C)C(O)C(C)/C=C\C=C(\C)C(=O)N2)O4 (stereo unspecified)
inactive: dose: 50.0 mg/kg/injection, schedule: Q04DX003 (ip), vehicle: water 100 % of control | dose: 100.0 mg/kg/injection, schedule: Q04DX003 (ip), vehicle: water 94 % of control | dose: 200.0 mg/kg/injection, schedule: Q04DX003 (ip), vehicle: water 100 % of control | dose: 400.0 mg/kg/injection, schedule: Q04DX003 (ip), vehicle: water 102 % of control

Cn1c(=O)cc(C=Nc2ccc(N=Nc3ccccc3)cc2)c2ccccc21
inactive: [5] 94 % of control | [6] 96 % of control | [7] 87 % of control
